From US9765018B2, “IDO inhibitors” (BRISTOL-MYERS SQUIBB COMPANY, priority 2013, dated 2017)

Columns and labels:
IDO [1] = biological target: T1, IDO (Homo sapiens (Human), UniProt P14902); experiment: LLE_IDO_ABS_DR (IDO assay, method not described)
IDO [2] = biological target: T1, IDO; experiment: Kynurenine assay in IFN-γ-stimulated Hela cells; type: cell-based; conditions: 20 h, read-out: Hela Kyurenine (IC50)
Procedure, shortened: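 Kynurenine in supernatant is read at 490 nm after Ehrlich reagent (10 min RT), following TCA stop and 30 min at 50° C hydrolysis. Before that, Hela cells in phenol red-free RPMI/10% FBS were co-treated 20 h at 37° C with 100 ng/mL IFN-γ and compound (30 μM top, 3-fold series to 1.5 nM).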

Human IDO1 = Human IDO1 (Homo sapiens (Human), UniProt P14902); experiment: IDO Kynurenine Assay with Human IDO1/HEK293 Cells; type: cell-based; conditions: HEK293 cells with human IDO1; read-out: HEK human IDO-1 (IC50)
Chain of Human IDO1 (P14902 whole entry): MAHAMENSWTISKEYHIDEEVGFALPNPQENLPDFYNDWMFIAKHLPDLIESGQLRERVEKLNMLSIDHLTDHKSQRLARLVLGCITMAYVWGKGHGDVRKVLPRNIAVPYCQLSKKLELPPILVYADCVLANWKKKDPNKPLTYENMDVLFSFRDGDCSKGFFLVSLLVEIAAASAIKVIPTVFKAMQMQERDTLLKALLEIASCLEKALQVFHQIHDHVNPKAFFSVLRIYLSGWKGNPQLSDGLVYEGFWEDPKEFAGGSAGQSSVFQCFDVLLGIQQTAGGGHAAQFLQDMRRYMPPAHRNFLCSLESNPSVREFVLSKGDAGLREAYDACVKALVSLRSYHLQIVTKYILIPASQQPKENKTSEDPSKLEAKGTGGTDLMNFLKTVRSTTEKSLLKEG
Experimental: IDO Kynurenine Assay with Human IDO1/HEK293 Cells
Human IDO1/HEK293 cells were seeded at 10,000 cells per 50 uL per well with RPMI/phenol red free media contains 10% FBS in a 384-well black wall clear bottom tissue culture plate (Matrix Technologies LLC) 125 nL of certain concentration of compound was then added to each well using ECHO liquid handling systems. The cells were incubated for 20 hours in 37° C. incubator with 5% CO2.
The compound treatments were stopped by adding Trichloroacetic Acid (Sigma-Aldrich) to a final concentration at 0.2%. The cell plate was further incubated at 50° C. for 30 minute. The equal volume supernatant (20 uL) and 0.2% (w/v) Ehrlich reagent (4-dimethylaminobenzaldehyde, Sigma-Aldrich) in glacial acetic acid were mixed in a new clear bottom 384-well plate. This plate was then incubated at room temperature for 30 minute. The absorbance at 490 nm was measured on Envision plate reader.

T1 sequence (P14902 whole entry): as above

`Cc1ccc(NC(=O)Nc2cc(-c3ccccc3C(=O)O)ccc2Oc2ccccc2C(C)(C)C)cc1` [Example 2, 4′-(2-tert-Butylphenoxy)-3′-(3-p-tolylureido)biphenyl-2-carboxylic acid] was tested, and the IC50 (IDO [1]) was 70 nM, the IC50 (IDO [2]) was 60 nM and the IC50 (Human IDO1) was 560 nM.

Work on `CCOc1ccc(-c2ccc(Oc3ccccc3C(C)(C)C)c(NC(=O)Nc3ccc(C)cc3)c2)cc1C(=O)O` [Example 5, 4′-(2-tert-Butylphenoxy)-4-ethoxy-3′-(3-p-tolylureido)biphenyl-3-carboxylic acid] yielded an IC50 (IDO [1]) of 1010 nM, an IC50 (IDO [2]) of 120 nM and an IC50 (Human IDO1) of 1830 nM.

With `COc1ccc(-c2ccc(Oc3ccccc3C(C)(C)C)c(NC(=O)Nc3ccc(C)cc3)c2)cc1NS(=O)(=O)C(F)(F)F` [Example 7, N-(4′-(2-tert-Butylphenoxy)-4-methoxy-3′-(3-p-tolylureido)biphenyl-3-yl)-1,1,1-trifluoromethanesulfonamide] the IC50 (IDO [1]) was 320 nM, the IC50 (IDO [2]) was 110 nM and the IC50 (Human IDO1) was 750 nM.

Work on `CCCOc1c(C/C=C/C(F)(F)F)cc(-c2ccccc2-c2nnn[nH]2)cc1NC(=O)Nc1ccc(C)cc1` [Example 32, (E)-1-(4-Propoxy-2′-(1H-tetrazol-5-yl)-5-(4,4,4-trifluorobut-2-en-1-yl)-[1,1′-biphenyl]-3-yl)-3-(p-tolyl)urea] yielded an IC50 (IDO [1]) of 9.47 nM and an IC50 (Human IDO1) of 10 nM.

`CCCOc1c(CCCc2ccccc2)cc(-c2ccccc2C(=O)O)cc1NC(=O)Nc1ccc(C)cc1` [Example 36, 3′-(3-Phenylpropyl)-4′-propoxy-5′-(3-p-tolylureido)biphenyl-2-carboxylic acid] showed an IC50 (IDO [1]) of 30 nM and an IC50 (Human IDO1) of 20 nM.

Molecule `COc1ccc(-c2ccc(Oc3ccccc3C(C)(C)C)c(NC(=O)Nc3ccccc3Cl)c2)cc1C(=O)O` [Example 42, 4′-(2-tert-butylphenoxy)-3′-(3-(2-chlorophenyl)ureido)-4-methoxybiphenyl-3-carboxylic acid] has an IC50 (IDO [1]) of 340 nM, an IC50 (IDO [2]) of 90 nM and an IC50 (Human IDO1) of 620 nM.

With `CCCOc1c(Br)cc(-c2ccccc2-c2nnn[nH]2)cc1NC(=O)Nc1ccc(C)cc1` [Example 283] the IC50 (IDO [1]) was 30 nM and the IC50 (Human IDO1) was 60 nM.

Molecule `CC/C=C/Cc1cc(-c2ccccc2-c2nnn[nH]2)cc(NC(=O)Nc2ccccc2F)c1OCCC` [Example 284] has an IC50 (IDO [1]) of 5.56 nM and an IC50 (Human IDO1) of 6.49 nM.

`CCCC(CCC)Oc1c(Br)cc(-c2ccccc2-c2nnn[nH]2)cc1NC(=O)Nc1ccccc1F` [Example 287] was tested, and the IC50 (IDO [1]) was 3.25 nM and the IC50 (Human IDO1) was 4.49 nM.

With `CCCCCc1cc(-c2ccccc2-c2nnn[nH]2)cc(NC(=O)Nc2ccccc2F)c1OCCC` [Example 289] the IC50 (IDO [1]) was 9.83 nM and the IC50 (Human IDO1) was 50 nM.

`CCCOc1c(NC(=O)Nc2ccc(C)cc2)cc(-c2ccccc2-c2nnn[nH]2)cc1C(CC)c1ccccc1` (centres unmarked) [Example 298] was tested, and the IC50 (IDO [1]) was 30 nM and the IC50 (Human IDO1) was 30 nM.

For `CCCC(Oc1ccc(-c2ccccc2-c2nnn[nH]2)cc1NC(=O)Nc1ccc(C)cc1)c1ccccc1Cl` (centres unmarked) [Example 313], the IC50 (IDO [1]) was 90 nM and the IC50 (Human IDO1) was 610 nM.

`O=C(Nc1ccc(C2CC2)cc1)Nc1cc(-c2ccccc2-c2nnn[nH]2)cc(CC2CC2)c1OCCC(F)(F)F` [Example 316] was tested, and the IC50 (IDO [1]) was 40 nM and the IC50 (Human IDO1) was 40 nM.

With `O=C(Nc1ccc(OC(F)(F)F)cc1)Nc1cc(-c2ccccc2-c2nnn[nH]2)cc(CC2CC2)c1OCCC(F)(F)F` [Example 319] the IC50 (IDO [1]) was 50 nM and the IC50 (Human IDO1) was 90 nM.

`O=C(Nc1ccc(OC(F)(F)F)cc1)Nc1cc(-c2ccccc2-c2nnn[nH]2)cc(CC2CC2)c1OCC1CC1` [Example 321] showed an IC50 (IDO [1]) of 10 nM and an IC50 (Human IDO1) of 30 nM.

In the case of `Cc1cccc(NC(=O)Nc2cc(-c3ccccc3-c3nnn[nH]3)cc(CC3CC3)c2Oc2ccccc2)c1` [Example 323], the IC50 (IDO [1]) is reported as 40 nM and the IC50 (Human IDO1) is reported as 60 nM.

With `CCCOc1c(NC(=O)Nc2ccc(C)cc2)cc(-c2ccccc2-c2nnn[nH]2)cc1C(CC)CCCc1ccccc1` (centres unmarked) [compound 297] the IC50 (IDO [1]) was 50 nM and the IC50 (Human IDO1) was 90 nM.
